Results from ChEMBL document CHEMBL5050844 (2019).
One block for each compound: values may come before it.

What was measured:
[1] = molecular target: T1, E3 ubiquitin-protein ligase CBL-B (Homo sapiens, UniProt Q13191); assay: Binding affinity towards N-terminal biotinylated Avi-tagged human CBL-B (36 to 427 residues) measured by surface plasmon resonance assay
[2] = molecular target: T1, E3 ubiquitin-protein ligase CBL-B; assay: Inhibition of N-terminal Avi-tagged human CBL-B (36 to 427 residues) incubated with 30 nM Src kinase for 1.5 hrs followed by incubation with fluorescently labeled UbcH5B-Ub for 1 hr and measured by TR-FRET assay
[3] = Induction of anti-CD3 antibodies-stimulated human T cell activation at 1 uM assessed fold increase in IL-2 secretion measured by ELISA assay; format: functional, T cell line; further: reference of the scale not given here
[4] = Induction of anti-CD3/CD28 antibodies-stimulated human T cell activation at 0.3 uM assessed fold increase in CD25 expression measured by ELISA assay; format: functional, T cell line
[5] = Induction of anti-CD3/CD28 antibodies-stimulated human T cell activation at 1 uM assessed fold increase in CD25 expression measured by ELISA assay; format: functional, T cell line
[6] = Induction of anti-CD3 antibodies-stimulated human CD8+ T cell activation in immunocompetent mouse assessed fold increase in CD25 expression at 90 mg/kg, po administered twice a day; format: functional; further: reference of the scale not given here
[7] = Induction of anti-CD3/CD28 antibodies-stimulated human T cell activation at 0.3 uM assessed fold increase in IL-2 secretion measured by ELISA assay; format: functional, T cell line
[8] = molecular target: T1, E3 ubiquitin-protein ligase CBL-B; assay: Inhibition of N-terminal Avi-tagged human CBL-B (36 to 427 residues) incubated with 60 nM Src kinase for 1.5 hrs followed by incubation with fluorescently labeled UbcH5B-Ub for 1 hr and measured by TR-FRET assay; format: single protein
[9] = Induction of anti-CD3/CD28 antibodies-stimulated human T cell activation at 1 uM assessed fold increase in IL-2 secretion measured by ELISA assay; format: functional, T cell line
[10] = Induction of anti-CD3 antibodies-stimulated human CD4+ T cell activation in immunocompetent mouse assessed fold increase in CD25 expression at 135 mg/kg, po administered twice a day; format: functional; further: reference of the scale not given here
[11] = Induction of anti-CD3 antibodies-stimulated human T cell activation at 1 uM assessed fold increase in CD25 expression measured by ELISA assay; format: functional, T cell line; further: reference of the scale not given here
[12] = Induction of activation of human CD56+ CD3- NK cells co-cultured with human K562 cells in 1:1 ratio and assessed as increase in IFN-gamma secretion at 2.5 uM measured by ELISA assay; format: functional, Natural killer cell
[13] = Induction of anti-CD3/CD28 antibodies-stimulated human anergic T cell activation at 0.37 uM assessed fold increase in IFN-gamma secretion measured by ELISA assay; format: functional, T cell line
[14] = Induction of activation of human CD56+ CD3- NK cells co-cultured with human K562 cells in 1:1 ratio and assessed as increase in TNF-alpha secretion at 2.5 uM measured by ELISA assay; format: functional, Natural killer cell
[15] = Induction of anti-CD3/CD28 antibodies-stimulated human T cell activation at 4 uM assessed fold increase in IL-2 secretion measured by ELISA assay; format: functional, T cell line
[16] = tested on: B cell; assay: Induction of anti-IgM-stimulated human CD20+ B cell activation at 10 to 1000 uM assessed as increase in CD69 expression measured as mean fluorescence intensity AUC by flow cytometry analysis; format: functional, cell-based; conditions: dose 10-1000 µM
[17] = Induction of anti-CD3 antibodies-stimulated human exhausted T cell activation assessed fold increase in IL-2 secretion measured by ELISA assay; format: functional, T cell line; further: reference of the scale not given here
[18] = Induction of anti-CD3/CD28 antibodies-stimulated human anergic T cell activation at 1.11 uM assessed fold increase in IFN-gamma secretion measured by ELISA assay; format: functional, T cell line
[19] = Induction of activation of human CD56+ CD3- NK cells co-cultured with human K562 cells in 1:1 ratio and assessed as increase in TNF-alpha secretion at 0.625 uM measured by ELISA assay; format: functional, Natural killer cell
[20] = Induction of anti-CD3/CD28 antibodies-stimulated human anergic T cell activation at 10 uM assessed fold increase in IFN-gamma secretion measured by ELISA assay; format: functional, T cell line
[21] = Induction of activation of human CD56+ CD3- NK cells co-cultured with human K562 cells in 1:1 ratio and assessed as increase in IFN-gamma secretion at 10 uM measured by ELISA assay; format: functional, Natural killer cell
[22] = Induction of allogenic human T cell activation at 3 uM assessed fold increase in cell proliferation; format: functional, T cell line
[23] = Induction of anti-CD3 antibodies-stimulated human exhausted CD4+ T cell activation assessed fold increase in CTLA4 expression measured by flow cytometry analysis; format: functional, T cell line; further: reference of the scale not given here
[24] = Induction of anti-CD3 antibodies-stimulated human T cell activation at 8 uM assessed fold increase in CD25 expression measured by ELISA assay; format: functional, T cell line; further: reference of the scale not given here
[25] = Induction of anti-CD3 antibodies-stimulated human exhausted CD8+ T cell activation assessed fold increase in CTLA4 expression measured by flow cytometry analysis; format: functional, T cell line; further: reference of the scale not given here
[26] = Induction of anti-CD3/CD28 antibodies-stimulated human T cell activation at 4 uM assessed fold increase in CD25 expression measured by ELISA assay; format: functional, T cell line
[27] = Induction of activation of human CD56+ CD3- NK cells co-cultured with human K562 cells in 1:1 ratio and assessed as increase in TNF-alpha secretion at 10 uM measured by ELISA assay; format: functional, Natural killer cell
[28] = Induction of anti-CD3 antibodies-stimulated human exhausted T cell activation assessed fold increase in GM-CSF secretion measured by ELISA assay; format: functional, T cell line; further: reference of the scale not given here
[29] = Induction of anti-CD3 antibodies-stimulated human exhausted T cell activation assessed fold increase in IFN-gamma secretion measured by ELISA assay; format: functional, T cell line; further: reference of the scale not given here
[30] = Induction of allogenic human T cell activation at 10 uM assessed fold increase in cell proliferation; format: functional, T cell line
[31] = Induction of activation of human CD56+ CD3- NK cells co-cultured with human K562 cells in 1:1 ratio and assessed as increase in IFN-gamma secretion at 0.625 uM measured by ELISA assay; format: functional, Natural killer cell
[32] = Induction of anti-CD3 antibodies-stimulated human T cell activation at 8 uM assessed fold increase in IL-2 secretion measured by ELISA assay; format: functional, T cell line; further: reference of the scale not given here

T1 sequence (Q13191 whole entry, the tested form may be a part): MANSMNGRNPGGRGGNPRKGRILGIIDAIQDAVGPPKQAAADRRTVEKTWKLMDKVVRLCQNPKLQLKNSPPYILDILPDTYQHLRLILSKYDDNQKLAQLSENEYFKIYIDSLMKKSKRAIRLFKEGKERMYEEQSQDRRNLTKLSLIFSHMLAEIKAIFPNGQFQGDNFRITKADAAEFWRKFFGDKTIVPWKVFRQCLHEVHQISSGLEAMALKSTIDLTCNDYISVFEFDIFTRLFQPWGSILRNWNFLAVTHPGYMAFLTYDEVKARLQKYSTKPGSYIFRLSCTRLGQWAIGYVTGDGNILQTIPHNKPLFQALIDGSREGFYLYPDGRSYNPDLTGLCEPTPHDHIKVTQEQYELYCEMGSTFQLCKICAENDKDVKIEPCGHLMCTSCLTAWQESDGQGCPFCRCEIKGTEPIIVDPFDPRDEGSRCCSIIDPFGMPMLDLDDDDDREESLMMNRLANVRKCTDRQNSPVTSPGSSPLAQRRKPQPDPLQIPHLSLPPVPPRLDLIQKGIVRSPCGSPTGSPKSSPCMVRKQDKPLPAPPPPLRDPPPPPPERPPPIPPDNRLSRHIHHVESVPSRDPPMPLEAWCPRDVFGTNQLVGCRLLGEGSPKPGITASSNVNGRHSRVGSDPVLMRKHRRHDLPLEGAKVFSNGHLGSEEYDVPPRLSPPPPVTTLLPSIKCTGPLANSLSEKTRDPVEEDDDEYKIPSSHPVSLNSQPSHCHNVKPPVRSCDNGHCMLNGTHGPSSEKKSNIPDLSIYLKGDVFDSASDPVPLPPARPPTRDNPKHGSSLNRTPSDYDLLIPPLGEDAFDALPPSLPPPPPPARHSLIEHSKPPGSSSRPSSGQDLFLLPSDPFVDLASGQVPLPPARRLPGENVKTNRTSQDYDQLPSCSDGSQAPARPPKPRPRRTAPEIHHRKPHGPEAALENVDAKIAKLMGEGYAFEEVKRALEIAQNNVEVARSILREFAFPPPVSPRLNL

Structure (SMILES): C[C@H](Sc1nncn1C)c1ccnc(N)c1
- Kd [1]: > 10 µM
- IC50 [2]: ≥ 3 µM

Structure (SMILES): CN1CC2CCC(C1)N2c1cc2c(c(C(F)(F)F)c1)CN(c1cccc(C3(Cc4nncn4C)COC3)c1)C2=O
- fold change (FC) [3]: >=0.201
- fold change (FC) [4]: 1.31
- fold change (FC) [5]: 1.31
- fold change (FC) [6]: 1
- fold change (FC) [7]: >=7.5
- IC50 [8]: < 0.1 µM
- fold change (FC) [9]: >=7.5
- fold change (FC) [10]: 1
- fold change (FC) [11]: >=1.001

Structure (SMILES): Cn1cnnc1CC1(c2cccc(N3Cc4c(cc(CN5CC6(CC6)C5)cc4C(F)(F)F)C3=O)c2)COC1
- fold change (FC) [3]: >=0.201
- fold change (FC) [4]: 1.31
- fold change (FC) [5]: 1.31
- fold change (FC) [6]: 1
- fold change (FC) [7]: >=7.5
- IC50 [8]: < 0.1 µM
- fold change (FC) [9]: >=7.5
- fold change (FC) [10]: 1.51
- fold change (FC) [11]: >=1.001

Structure (SMILES): C[C@H](Cc1nncn1C)c1ccnc(NC(=O)c2cccc(C(F)(F)F)n2)c1
- fold change (FC) [3]: <=0.05
- fold change (FC) [4]: 1.01
- fold change (FC) [5]: 1.01
- fold change (FC) [12]: <=1
- fold change (FC) [13]: <=2.5
- fold change (FC) [14]: 1.01
- fold change (FC) [15]: >=7.5
- AUC [16]: 0.5
- fold change (FC) [17]: <=2.5
- fold change (FC) [7]: 2.51
- fold change (FC) [18]: <=2.5
- fold change (FC) [19]: 1.01
- fold change (FC) [20]: <=2.5
- fold change (FC) [21]: 2.01
- fold change (FC) [22]: <=2
- fold change (FC) [23]: <=1.4
- fold change (FC) [24]: 0.801
- fold change (FC) [9]: 2.51
- fold change (FC) [11]: <=0.6
- fold change (FC) [25]: <=1.4
- fold change (FC) [26]: 1.01
- fold change (FC) [27]: 1.01
- fold change (FC) [28]: <=1.4
- fold change (FC) [29]: <=1.4
- fold change (FC) [30]: <=2
- fold change (FC) [31]: 1.01
- fold change (FC) [32]: 0.051

Structure (SMILES): CC(Sc1nncn1C)c1cccc(NC(=O)c2ccc3cccnc3c2)c1 (stereo not given)
- IC50 [2]: > 10 µM

Structure (SMILES): CC(Sc1nncn1C)c1cccc(NC(=O)c2ccc3ccncc3c2)c1 (stereo not given)
- Kd [1]: > 10 µM
- IC50 [2]: > 10 µM

Structure (SMILES): C[C@@H](c1cc2c(c(C(F)(F)F)c1)CN(c1cccc(C3(Cc4nncn4C)COC3)c1)C2=O)N1CC2CC2C1 (stereo not given in full)
- fold change (FC) [3]: >=0.201
- fold change (FC) [4]: 1.31
- fold change (FC) [5]: 1.31
- fold change (FC) [6]: 1
- fold change (FC) [7]: >=7.5
- IC50 [8]: < 0.1 µM
- fold change (FC) [9]: >=7.5
- fold change (FC) [10]: 1
- fold change (FC) [11]: >=1.001

Structure (SMILES): Cn1cnnc1CC1(c2cccc(N3Cc4c(cc(CN5C[C@H]6C[C@H]6C5)cc4C(F)(F)F)C3=O)c2)COC1
- fold change (FC) [3]: >=0.201
- fold change (FC) [4]: 1.31
- fold change (FC) [5]: 1.31
- fold change (FC) [15]: >=7.5
- fold change (FC) [6]: 1
- fold change (FC) [7]: >=7.5
- IC50 [8]: < 0.1 µM
- fold change (FC) [24]: >=1.001
- fold change (FC) [9]: >=7.5
- fold change (FC) [10]: 1
- fold change (FC) [11]: >=1.001
- fold change (FC) [26]: 1.51
- fold change (FC) [32]: >=0.201

Continued, values first:

- IC50 [2]: > 10 µM
Structure (SMILES): CC(Sc1nncn1C)c1cccc(NC(=O)c2cc3ccccc3c(=O)[nH]2)c1 (stereo not given)

- Kd [1]: > 10 µM
- IC50 [2]: ≥ 3 µM
Structure (SMILES): CC(Sc1nncn1C)c1cccc(NC(=O)c2ccccn2)c1 (stereo not given)

- IC50 [2]: > 10 µM
Structure (SMILES): Cc1ccc2cc(C(=O)Nc3cccc(C(C)Sc4nncn4C)c3)cnc2c1 (stereo not given)

- Kd [1]: > 10 µM
- IC50 [2]: > 10 µM
Structure (SMILES): COc1ccccc1C(=O)Nc1cccc(C(C)Sc2nncn2C)c1 (stereo not given)

- Kd [1]: > 10 µM
- IC50 [2]: > 10 µM
Structure (SMILES): COc1ccc(C(=O)Nc2cccc(C(C)Sc3nncn3C)c2)cc1 (stereo not given)
